# Reference: patent publication US12246089B2, “Method for treatment of a viral-mediated infectious disease” (Virothera Pharmaceuticals LLC, priority 2020, dated 2025)
# Read-outs that look alike come from different tables or passages of the source.
# Experiments:
# [1] = Encapsulation efficiency and loading capacity of niclosamide by HPLC; conditions: niclosamide in niclosamide, HPLC 333-346 nm
# [2] = tested on: COVID-19; conditions: cited from earlier work
# [3] = tested on: SARS-CoV; conditions: by interfering with glycosylation of ACE2; cited from earlier work
# [4] = tested on: SARS-CoV-2; conditions: in vitro; cited from earlier work
# [5] = tested on: inhalation injury (IHI); conditions: nebulized; cited from earlier work
# [6] = tested on: viruses including COVID-19 viruses; conditions: cited from earlier work
# [7] = cited from earlier work
# [8] = tested on: severe coronavirus disease 2019 patients with coagulopathy; conditions: cited from earlier work
# [9] = tested on: patients with COPD; conditions: cited from earlier work
# [10] = molecular target: SARS-CoV-2 spike glycoprotein (SGP) (Severe acute respiratory syndrome coronavirus 2, UniProt P0DTC2); conditions: cited from earlier work
compound,measurement,setting,value
O=C(Nc1ccc([N+](=O)[O-])cc1Cl)c1cc(Cl)ccc1O [niclosamide],encapsulation efficiency,[1],90%
same,loading capacity,[1],10.0%
CCN(CCO)CCCC(C)Nc1ccnc2cc(Cl)ccc12 (stereo not drawn) [hydroxychloroquine],clinical benefit of combination with azithromycin,[2]; 11 patients with severe COVID-19,no evidence of clinical benefit
same,effectiveness in COVID-19-associated pneumonia,[2]; several clinical trials in China,to various degree effective
same,clinical effect in combination with azithromycin,[2]; small open-label non-randomized clinical trial from France,positive effect
same,replication of SARS-CoV,[3],specifically inhibit the replication of SARS-CoV
same,viral copy number of SARS-CoV-2,[4],effectively reduce the viral copy number
heparin,lung function and mortality in IHI,[5],promotes improvement in lung function and decreased mortality
same,binding affinity to viruses,[6],nanomolar to sub-nanomolar
same,plasma protein binding,[7],high plasma protein binding
same,mortality,"[8]; patients meeting sepsis induced coagulopathy (SIC) criteria ≥4, heparin therapy (vs 64.2%, P=0.029)",40.0%
same,mortality,"[8]; patients with SIC score <4, heparin therapy (vs 22.6%, P=0.419)",29.0%
same,lung function,"[9]; inhaled, 21 days of treatment, COPD patients receiving pulmonary rehabilitation",significantly improves lung function
same,safety of inhaled nebulized UFH,[9]; patients with moderate to very severe COPD,safe
same,SGP binding affinity,[10],high sub-nanomolar affinity
